The values that follow come from PubChem BioAssay (NCI).

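Protocol summary: plate cells (96-well), add compound at 5 concentrations, incubate 48 h, interpolate endpoints linearly. TGI: total growth inhibition.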

One experiment has as its system A549 NSCLC. Kind of experiment: NCI anticancer screen, dose series, 48 h.
As for `COC(=O)[C@@H]1[C@H](OC(C)=O)CCC2[C@@]3(C[C@@H](c4ccoc4)O[C@@H]3OC)[C@H](C)CC[C@]21C(=O)OC` (stereo not given in full), the TGI was above 25 µM.
In the case of `CC(C)(C)OC(=O)NC(Cc1ccccc1)OCc1ccccc1` (stereo not given), the TGI turned out to be 32.8 µM.
`COc1cc2c3c(c1)CCCN3CCC2` had a TGI above 10 µM.
With `Cc1ccc(NC(Nc2ccc(C)cc2C)=C(/C=C(\Cl)[N+](=O)[O-])[N+](=O)[O-])c(C)c1`, the TGI was 35 µM.
Compound `CC1(/C=C/CCSc2ccccc2)CC(=O)C2CC1C2(C)C` (stereo not given) displayed a TGI above 100 µM.
Regarding `COc1cc(/C=C/c2nc(NC(=S)Nc3ccccc3)nnc2C)cc(OC)c1OC`, the TGI is above 100 µM.
`CC1(C)C=Cc2c(cc(O)c3c(=O)c4cc(Cl)ccc4[nH]c23)O1`: the TGI was above 10 µM.
The compound `CC(=O)c1ccc2c(c1)CC1(C2)Cc2cc3c(cc2C1=O)CCC3` (stereo not given) gave a TGI of 59.5 µM.
`CCc1nn(CN2CCOCC2)c(=S)n1/N=C/c1ccc(-c2ccc(Cl)cc2)o1` gave a TGI above 100 µM.
Compound `COc1cc(C2SCC(=O)N2c2cccc(Cl)c2)cc(OC)c1OC` (stereo not given) returned a TGI above 100 µM.
On the same count and under the same terms, to `CS(=O)(=O)OCC1CN(S(C)(=O)=O)c2cc(O)ccc21` (stereo not given) belongs 21.1 µM; to `CCOC(=O)C1=NOC2(C=C(Br)C(=O)C(Br)=C2)C1`, 59 µM.
Same read-out and setting: to `Oc1ccc(-c2cc(-c3cc(-c4ccc(O)cc4)no3)on2)cc1` belongs above 100 µM; to `O=c1[nH]cc(-c2c[nH]c3ccccc23)nc1-c1c[nH]c2ccccc12`, above 100 µM; to `Nc1n[n+](CC(=O)c2ccccc2)c2sc(-c3ccccc3)nn12`, above 100 µM.
With `CCOC(=O)c1c(C)nc2c1c(CN(C)C)c(O)c1[nH]c(C)c(C)nc12`, the TGI is above 100 µM.
Regarding `Cc1cc(C)c(-n2[nH]c(=O)n(C)c2=O)c(C)c1`, the TGI is above 100 µM.
With `CC1=NC(=Cc2cccc(Cl)c2)C(=O)N1n1c(-c2ccccc2)nc2ccccc2c1=O`, the TGI is above 100 µM.

A further experiment relates to EKVX NSCLC. The experiment in a line: NCI anticancer screen, dose series, 48 h.
On to `COC(=O)[C@@H]1[C@H](OC(C)=O)CCC2[C@@]3(C[C@@H](c4ccoc4)O[C@@H]3OC)[C@H](C)CC[C@]21C(=O)OC` (stereo not given in full), for which the TGI was above 25 µM.
The same measure, in the same setting: the figure for `CC(C)(C)OC(=O)NC(Cc1ccccc1)OCc1ccccc1` (stereo not given) is 35.9 µM; for `COc1cc2c3c(c1)CCCN3CCC2` it is above 10 µM.
In turn, `Cc1ccc(NC(Nc2ccc(C)cc2C)=C(/C=C(\Cl)[N+](=O)[O-])[N+](=O)[O-])c(C)c1` came in with a TGI of 32.3 µM.
Still for that read-out and setting: to `CC1(/C=C/CCSc2ccccc2)CC(=O)C2CC1C2(C)C` (stereo not given) belongs above 100 µM; to `COc1cc(/C=C/c2nc(NC(=S)Nc3ccccc3)nnc2C)cc(OC)c1OC`, above 100 µM.
For the compound `CC1(C)C=Cc2c(cc(O)c3c(=O)c4cc(Cl)ccc4[nH]c23)O1`, the TGI was above 10 µM.
Still for that read-out and setting: the figure for `CC(=O)c1ccc2c(c1)CC1(C2)Cc2cc3c(cc2C1=O)CCC3` (stereo not given) is 64.8 µM; for `CCc1nn(CN2CCOCC2)c(=S)n1/N=C/c1ccc(-c2ccc(Cl)cc2)o1` it is above 100 µM; for `COc1cc(C2SCC(=O)N2c2cccc(Cl)c2)cc(OC)c1OC` (stereo not given) it is above 100 µM.
For `CS(=O)(=O)OCC1CN(S(C)(=O)=O)c2cc(O)ccc21` (stereo not given), the TGI turned out to be 16 µM.
The same measure, in the same setting: the figure for `CCOC(=O)C1=NOC2(C=C(Br)C(=O)C(Br)=C2)C1` is 5.45 µM; for `Oc1ccc(-c2cc(-c3cc(-c4ccc(O)cc4)no3)on2)cc1` it is above 100 µM.
Still for that read-out and setting: the figure for `O=c1[nH]cc(-c2c[nH]c3ccccc23)nc1-c1c[nH]c2ccccc12` is 24.6 µM; for `Nc1n[n+](CC(=O)c2ccccc2)c2sc(-c3ccccc3)nn12` it is above 100 µM.
The compound `CCOC(=O)c1c(C)nc2c1c(CN(C)C)c(O)c1[nH]c(C)c(C)nc12` yielded a TGI of 92 µM.
Regarding `Cc1cc(C)c(-n2[nH]c(=O)n(C)c2=O)c(C)c1`, the TGI is above 100 µM.
`CC1=NC(=Cc2cccc(Cl)c2)C(=O)N1n1c(-c2ccccc2)nc2ccccc2c1=O` registered a TGI above 100 µM.

The subject of the next experiment is IGROV1 ovarian. Kind of experiment: NCI anticancer screen, dose series, 48 h.
The compound `COC(=O)[C@@H]1[C@H](OC(C)=O)CCC2[C@@]3(C[C@@H](c4ccoc4)O[C@@H]3OC)[C@H](C)CC[C@]21C(=O)OC` (stereo not given in full) registered a TGI above 25 µM.
In turn, `CC(C)(C)OC(=O)NC(Cc1ccccc1)OCc1ccccc1` (stereo not given) yielded a TGI above 10 µM.
The same measure, in the same setting: to `COc1cc2c3c(c1)CCCN3CCC2` belongs above 10 µM; to `Cc1ccc(NC(Nc2ccc(C)cc2C)=C(/C=C(\Cl)[N+](=O)[O-])[N+](=O)[O-])c(C)c1`, 20.9 µM; to `CC1(/C=C/CCSc2ccccc2)CC(=O)C2CC1C2(C)C` (stereo not given), 53.5 µM.
The compound `COc1cc(/C=C/c2nc(NC(=S)Nc3ccccc3)nnc2C)cc(OC)c1OC` returned a TGI of 93.7 µM.
Consider `CC1(C)C=Cc2c(cc(O)c3c(=O)c4cc(Cl)ccc4[nH]c23)O1`, for which the TGI is above 10 µM.
Compound `CC(=O)c1ccc2c(c1)CC1(C2)Cc2cc3c(cc2C1=O)CCC3` (stereo not given) displayed a TGI of 59 µM.
For `CCc1nn(CN2CCOCC2)c(=S)n1/N=C/c1ccc(-c2ccc(Cl)cc2)o1`, the TGI was above 100 µM.
Compound `COc1cc(C2SCC(=O)N2c2cccc(Cl)c2)cc(OC)c1OC` (stereo not given) showed a TGI above 100 µM.
With `CS(=O)(=O)OCC1CN(S(C)(=O)=O)c2cc(O)ccc21` (stereo not given), the TGI came to 22.4 µM.
`CCOC(=O)C1=NOC2(C=C(Br)C(=O)C(Br)=C2)C1` showed a TGI of 20.6 µM.
The compound `Oc1ccc(-c2cc(-c3cc(-c4ccc(O)cc4)no3)on2)cc1` yielded a TGI above 100 µM.
Turning to `O=c1[nH]cc(-c2c[nH]c3ccccc23)nc1-c1c[nH]c2ccccc12`, the TGI was found to be 14.6 µM.
`Nc1n[n+](CC(=O)c2ccccc2)c2sc(-c3ccccc3)nn12` gave a TGI above 100 µM.
With `CCOC(=O)c1c(C)nc2c1c(CN(C)C)c(O)c1[nH]c(C)c(C)nc12`, the TGI is above 100 µM.
For the compound `Cc1cc(C)c(-n2[nH]c(=O)n(C)c2=O)c(C)c1`, the TGI was above 100 µM.
The compound `CC1=NC(=Cc2cccc(Cl)c2)C(=O)N1n1c(-c2ccccc2)nc2ccccc2c1=O` displayed a TGI above 100 µM.

The test system of another experiment is K-562 leukemia. Kind of experiment: NCI anticancer screen, dose series, 48 h.
Take `COC(=O)[C@@H]1[C@H](OC(C)=O)CCC2[C@@]3(C[C@@H](c4ccoc4)O[C@@H]3OC)[C@H](C)CC[C@]21C(=O)OC` (stereo not given in full): the TGI is above 25 µM.
`CC(C)(C)OC(=O)NC(Cc1ccccc1)OCc1ccccc1` (stereo not given): the TGI was found to be 66.2 µM.
Consider `COc1cc2c3c(c1)CCCN3CCC2`, for which the TGI is above 10 µM.
Regarding `Cc1ccc(NC(Nc2ccc(C)cc2C)=C(/C=C(\Cl)[N+](=O)[O-])[N+](=O)[O-])c(C)c1`, the TGI is 3.75 µM.
On the same count and under the same terms, the figure for `CC1(/C=C/CCSc2ccccc2)CC(=O)C2CC1C2(C)C` (stereo not given) is above 100 µM.
With `COc1cc(/C=C/c2nc(NC(=S)Nc3ccccc3)nnc2C)cc(OC)c1OC`, the TGI is 78.2 µM.
With `CC1(C)C=Cc2c(cc(O)c3c(=O)c4cc(Cl)ccc4[nH]c23)O1`, the TGI was above 10 µM.
`CC(=O)c1ccc2c(c1)CC1(C2)Cc2cc3c(cc2C1=O)CCC3` (stereo not given) showed a TGI above 100 µM.
With `CCc1nn(CN2CCOCC2)c(=S)n1/N=C/c1ccc(-c2ccc(Cl)cc2)o1`, the TGI is above 100 µM.
The same measure, in the same setting: to `COc1cc(C2SCC(=O)N2c2cccc(Cl)c2)cc(OC)c1OC` (stereo not given) belongs above 100 µM; to `CS(=O)(=O)OCC1CN(S(C)(=O)=O)c2cc(O)ccc21` (stereo not given), 10.3 µM; to `CCOC(=O)C1=NOC2(C=C(Br)C(=O)C(Br)=C2)C1`, 6.42 µM.
On to `Oc1ccc(-c2cc(-c3cc(-c4ccc(O)cc4)no3)on2)cc1`, for which the TGI was above 100 µM.
In turn, `O=c1[nH]cc(-c2c[nH]c3ccccc23)nc1-c1c[nH]c2ccccc12` showed a TGI of 9.21 µM.
`Nc1n[n+](CC(=O)c2ccccc2)c2sc(-c3ccccc3)nn12`: the TGI is above 100 µM.
Consider `CCOC(=O)c1c(C)nc2c1c(CN(C)C)c(O)c1[nH]c(C)c(C)nc12`, for which the TGI was above 100 µM.
